According to patent US10925876B2, “Methods for using triazolo-pyrazinyl soluble guanylate cyclase activators in fibrotic disorders” (Merck Sharp & Dohme Corp., priority 2016, dated 2021):

Legend:
[1] = test system: Spontaneously hypertensive rats (SHR); experiment: Acute Efficacy in Spontaneously Hypertensive Rats (SHR), telemetry blood pressure; format: in vivo, rat; settings: single oral gavage
Source text: Spontaneously hypertensive rats (SHR, male, Charles River) were implanted with DSI TA11PA-C40 telemetry device (Data Sciences, Inc., St. Paul, Minn.) under isoflurane or ketamine/metomidine anesthesia. The telemetry unit catheter was inserted into the descending aorta via the femoral artery and the telemetry device was implanted subcutaneously in the left flank area. Animals were allowed to recover from surgery for 14 days before the start of any studies. Blood pressure, heart rate, and activity signals from conscious, freely moving rats were recorded continuously for 30 seconds every 10 minutes. On the day prior to administration of compound, a single oral dose of vehicle (10% transcutol/20% Cremophor/70% water) was administered to all animals to establish baseline control data. The blood pressure lowering efficacy of compound (PO) or vehicle was evaluated following a single oral gavage. Data were collected as hourly averages, and changes in blood pressure were calculated by subtracting control baseline data on an hourly basis. Animals were maintained on normal diet with a 12 hour light-dark cycle.
Maximum peak decreases of systolic blood pressure (SBP) in SHR at a particular P.O. dose (mpk milligrams per kilogram) for the following representative compounds are provided. Category A=SBP in SHRs <20 mmHg; Category B=SBP in SHRs 20-40 mmHg; Category C=SBP in SHRs >40 mmHg.

sGC α1/β1 heterodimer = biological target: T1, sGC α1/β1 heterodimer (Homo sapiens, UniProt Q02108+Q02153); experiment: Cell-Based sGC Functional Assay (CASA Assay), cGMP generation in CHO-K1/sGC cells;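 further: reference Compound A is a published heme-dependent sGC activator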; settings: maximum cGMP production of Compound A set to 100% activation, read-out: % Act. (percent activation relative to Compound A)
T1 construct: expressed in transfected cells
T1 sequence (Q02108 1-690): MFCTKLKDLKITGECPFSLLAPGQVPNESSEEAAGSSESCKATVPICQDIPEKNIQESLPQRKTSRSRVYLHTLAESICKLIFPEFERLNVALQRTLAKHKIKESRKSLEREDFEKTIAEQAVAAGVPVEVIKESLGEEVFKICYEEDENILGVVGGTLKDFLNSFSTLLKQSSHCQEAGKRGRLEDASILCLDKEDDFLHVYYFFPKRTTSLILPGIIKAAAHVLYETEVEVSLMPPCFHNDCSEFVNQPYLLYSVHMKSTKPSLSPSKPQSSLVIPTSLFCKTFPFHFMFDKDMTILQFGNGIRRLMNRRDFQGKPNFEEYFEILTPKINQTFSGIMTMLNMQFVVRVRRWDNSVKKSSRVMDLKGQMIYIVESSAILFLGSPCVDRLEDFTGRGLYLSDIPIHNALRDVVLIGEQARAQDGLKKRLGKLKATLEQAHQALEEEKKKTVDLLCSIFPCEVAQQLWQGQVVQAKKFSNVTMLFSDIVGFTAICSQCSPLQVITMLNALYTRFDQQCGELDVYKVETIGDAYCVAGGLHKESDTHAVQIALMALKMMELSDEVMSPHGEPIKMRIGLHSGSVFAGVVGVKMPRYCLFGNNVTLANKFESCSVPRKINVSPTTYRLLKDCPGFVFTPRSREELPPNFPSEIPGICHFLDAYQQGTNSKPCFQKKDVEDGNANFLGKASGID
T1 sequence (Q02153 1-619): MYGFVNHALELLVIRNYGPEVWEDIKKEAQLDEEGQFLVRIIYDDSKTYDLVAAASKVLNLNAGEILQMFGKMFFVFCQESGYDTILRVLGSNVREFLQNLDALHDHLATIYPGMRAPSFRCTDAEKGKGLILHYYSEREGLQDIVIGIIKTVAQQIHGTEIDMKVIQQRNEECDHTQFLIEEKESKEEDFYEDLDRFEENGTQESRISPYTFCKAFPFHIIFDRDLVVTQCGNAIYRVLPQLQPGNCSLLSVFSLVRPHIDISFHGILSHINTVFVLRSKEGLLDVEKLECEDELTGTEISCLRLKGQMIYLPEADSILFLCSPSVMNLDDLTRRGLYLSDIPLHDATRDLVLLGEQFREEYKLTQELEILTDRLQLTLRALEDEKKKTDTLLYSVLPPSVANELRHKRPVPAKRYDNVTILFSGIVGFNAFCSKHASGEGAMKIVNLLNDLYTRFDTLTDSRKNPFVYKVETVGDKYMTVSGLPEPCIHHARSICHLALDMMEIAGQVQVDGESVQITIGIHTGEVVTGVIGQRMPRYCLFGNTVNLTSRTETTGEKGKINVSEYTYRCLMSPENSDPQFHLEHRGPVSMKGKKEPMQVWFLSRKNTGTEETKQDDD
Outline: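 CHO-K1 cells stably expressing human sGC α1/β1, 4×10^5/mL in EBSS with 5 mM MgCl2, 10 mM HEPES, 0.05% BSA, 0.5 mM IBMX, 2.5% DMSO; compounds 1 h at 37 °C ± 1 μM DETA-NO. cGMP by HTRF, expressed as % of reference Compound A maximum; IP and max fold induction from 4P fit.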

SMILES | Maximum peak decrease of systolic blood pressure (SBP) in SHR, Cat. ([1]; P.O. 3 mpk) | Emax (sGC α1/β1 heterodimer) [%] | Maximum peak decrease of systolic blood pressure (SBP) in SHR, Cat. ([1]; P.O. 1 mpk) | Maximum peak decrease of systolic blood pressure (SBP) in SHR, Cat. ([1]; P.O. 0.3 mpk) | Maximum peak decrease of systolic blood pressure (SBP) in SHR, Cat. ([1]; P.O. 0.1 mpk)
Nc1nc(-c2cn3ncnc3c(CCC(F)(F)C(F)(F)F)n2)nc2c1C(c1nnc(C3CC3)o1)(C1CC1)C(=O)N2 (stereo not drawn) [Example 107A, 4-amion-5-cyclopropyl-5-(5-cyclopropyl-1,3,4-oxadiazol-2-yl)-2-(8-(3,3,4,4,4-pentafluorobutyl)-[1,2,4]triazolo[1,5-a]pyrazin-6-yl)-5H-pyrrolo[2,3-d]pyrimidin-6(7H)-one] | C (Category C=SBP in SHRs >40 mmHg) | 76 |  |  | 
CC(C)Cc1nc(-c2nc(N)c3c(n2)NC(=O)[C@@]3(C)c2ccc(F)cc2)cn2ncnc12 [Example 73A, (S)-4-amino-5-(4-fluorophenyl)-2-(8-isobutyl-[1,2,4]triazolo[1,5-a]pyrazin-6-yl)-5-methyl-5,7-dihydro-6H-pyrrolo[2,3-d]pyrimidin-6-one] |  | 101 | B (Category B=SBP in SHRs 20-40 mmHg) |  | 
Nc1nc(-c2cn3ncnc3c(CCCC(F)(F)F)n2)nc2c1C(c1ccc(C(F)F)cn1)(C1CC1)C(=O)N2 (racemic) [Example 44B, 4-amino-5-cyclopropyl-5-(5-(difluoromethyl)pyridin-2-yl)-2-(8-(4,4,4-trifluorobutyl)-[1,2,4]triazolo[1,5-a]pyrazin-6-yl)-5H-pyrrolo[2,3-d]pyrimidin-6(7H)-one] |  | 120 | B (Category B=SBP in SHRs 20-40 mmHg) |  | 
C[C@@]1(c2ccc(F)cc2)C(=O)Nc2nc(-c3cn4ncnc4c(CCC(F)(F)C(F)(F)F)n3)nc(C(N)=O)c21 [Example 177A, 5-(4-Fluorophenyl)-5-methyl-6-oxo-2-(8-(3,3,4,4,4-pentafluorobutyl)-[1,2,4]triazolo[1,5-a]pyrazin-6-yl)-6,7-dihydro-5H-pyrrolo[2,3-d]pyrimidine-4-carboxamide] |  | 168 | C (Category C=SBP in SHRs >40 mmHg) |  | 
C[C@@]1(c2ccc(F)cc2)C(=O)Nc2nc(-c3cn4ncnc4c(CCC(F)(F)C(F)(F)F)n3)nc(N)c21 [Example 1A, (S)-4-Amino-5-(4-fluorophenyl)-5-methyl-2-(8-(3,3,4,4,4-pentafluorobutyl)-[1,2,4]triazolo[1,5-a]pyrazin-6-yl)-5H-pyrrolo[2,3-d]pyrimidin-6(7H)-one] |  | 196 |  | C (Category C=SBP in SHRs >40 mmHg) | 
CC(C)n1cc(C2(C)C(=O)Nc3nc(-c4cn5ncnc5c(CCC(F)(F)C(F)(F)F)n4)nc(N)c32)nn1 (stereo not drawn) [Example 20A, 4-amino-5-(1-isopropyl-1H-1,2,3-triazol-4-yl)-5-methyl-2-(8-(3,3,4,4,4-pentafluorobutyl)-[1,2,4]triazolo[1,5-a]pyrazin-6-yl)-5H-pyrrolo[2,3-d]pyrimidin-6(7H)-one] |  | 131 | C (Category C=SBP in SHRs >40 mmHg) |  | 
CCCCc1nc(-c2nc(N)c3c(n2)NC(=O)C3(C)c2ccc(F)cn2)cn2ncnc12 (stereo not drawn) [Example 61B, 4-amino-2-(8-butyl-[1,2,4]triazolo[1,5-a]pyrazin-6-yl)-5-(5-fluoropyridin-2-yl)-5-methyl-5H-pyrrolo[2,3-d]pyrimidin-6(7H)-one] |  | 177 |  | C (Category C=SBP in SHRs >40 mmHg) | 
CC1(c2ccc(Cl)cc2)C(=O)Nc2nc(-c3cn4ncnc4c(CCCC(F)(F)F)n3)nc(O)c21 (stereo not drawn) [Example 142A, 5-(4-chlorophenyl)-4-hydroxy-5-methyl-2-(8-(4,4,4-trifluorobutyl)-[1,2,4]triazolo[1,5-a]pyrazin-6-yl)-5H-pyrrolo[2,3-d]pyrimidin-6(7H)-one] |  | 137 |  | B (Category B=SBP in SHRs 20-40 mmHg) | 
CC1(c2ccccc2)C(=O)Nc2nc(-c3cn4ncnc4c(CCC(F)(F)C(F)(F)F)n3)nc(N)c21 (stereo not drawn) [Example 12B, 4-amino-5-methyl-2-(8-(3,3,4,4,4-pentafluorobutyl)-[1,2,4]triazolo[1,5-a]pyrazin-6-yl)-5-phenyl-5H-pyrrolo[2,3-d]pyrimidin-6(7H)-one] |  | 122 |  |  | B (Category B=SBP in SHRs 20-40 mmHg)
Nc1nc(-c2cn3ncnc3c(CCCC(F)(F)F)n2)nc2c1C(c1nnc(C3CC3)o1)(C1CC1)C(=O)N2 (stereo not drawn) [Example 104A, 4-amino-5-cyclopropyl-5-(5-cyclopropyl-1,3,4-oxadiazol-2-yl)-2-(8-(4,4,4-trifluorobutyl)-[1,2,4]triazolo[1,5-a]pyrazin-6-yl)-5H-pyrrolo[2,3-d]pyrimidin-6(7H)-one] | C (Category C=SBP in SHRs >40 mmHg) | 117 |  |  | 
CCCCc1nc(-c2nc(O)c3c(n2)NC(=O)[C@@]3(C)c2ccc(F)cc2)cn2ncnc12 [Example 154A, (S)-2-(8-butyl-[1,2,4]triazolo[1,5-a]pyrazin-6-yl)-5-(4-fluorophenyl)-4-hydroxy-5-methyl-5,7-dihydro-6H-pyrrolo[2,3-d]pyrimidin-6-one] |  | 100 |  | B (Category B=SBP in SHRs 20-40 mmHg) | 
CC1(c2ccc(Cl)cn2)C(=O)Nc2nc(-c3cn4ncnc4c(CCC(F)(F)C(F)(F)F)n3)nc(O)c21 (stereo not drawn) [Example 120A, 5-(5-chloropyridin-2-yl)-4-hydroxy-5-methyl-2-(8-(3,3,4,4,4-pentafluorobutyl)-[1,2,4]triazolo[1,5-a]pyrazin-6-yl)-5H-pyrrolo[2,3-d]pyrimidin-6(7H)-one] |  | 107 | B (Category B=SBP in SHRs 20-40 mmHg) |  | 
C[C@@]1(c2ccc(F)cc2)C(=O)Nc2nc(-c3cn4ncnc4c(CCCC(F)(F)F)n3)nc(O)c21 [Example 135A, 5-(4-fluorophenyl)-4-hydroxy-5-methyl-2-(8-(4,4,4-trifluorobutyl)-[1,2,4]triazolo[1,5-a]pyrazin-6-yl)-5,7-dihydro-6H-pyrrolo[2,3-d]pyrimidin-6-one] |  | 108 | B (Category B=SBP in SHRs 20-40 mmHg) |  | 
Nc1nc(-c2cn3ncnc3c(CCCC(F)(F)F)n2)nc2c1C(c1ccc(O)cn1)(C1CC1)C(=O)N2 (stereo not drawn) [Example 112A, 4-amino-5-cyclopropyl-5-(5-hydroxypyridin-2-yl)-2-(8-(4,4,4-trifluorobutyl)-[1,2,4]triazolo[1,5-a]pyrazin-6-yl)-5H-pyrrolo[2,3-d]pyrimidin-6(7H)-one] | A (Category A=SBP in SHRs <20 mmHg) | 91 |  |  | 
CC1(c2nnc(C3CC3)o2)C(=O)Nc2nc(-c3cn4ncnc4c(CCC(F)(F)C(F)(F)F)n3)nc(N)c21 (stereo not drawn) [Example 98B, 4-amino-5-(5-cyclopropyl-1,3,4-oxadiazol-2-yl)-5-methyl-2-(8-(3,3,4,4,4-pentafluorobutyl)-[1,2,4]triazolo[1,5-a]pyrazin-6-yl)-5H-pyrrolo[2,3-d]pyrimidin-6(7H)-one] |  | 164 | B (Category B=SBP in SHRs 20-40 mmHg) |  | 
